Measured values from patent publication US20130296266A1, “Pharmaceutical Composition of Complex Carbohydrates and Essential Oils and Methods of Using the Same” (Dermal Research Laboratories, Inc., priority 1999, published 2013).

Assays:
polymyositis = assay: Mucosal treatment of polymyositis (Example 26); assay type: in vivo, human; conditions: 50 mg daily
Method: A person suffering from colon cancer had been unable to tolerate their colostomy and demanded that their surgeon reconnect their intestines. They refused chemotherapy but requested a preparation prepared according to this invention. They were given a formulation of sodium hyaluronate (Collaborative Laboratories, Inc) which was prepared with a mixture of molecular weights of hyaluronate (as in EXAMPLE 4). When they began taking the hyaluronate preparation, their CEA was 70.1. They have taken the hyaluronate at a dose of 10 mg three times per day mucosally and after 6 months of treatment their CEA has dropped to 4.1. They have taken no other treatments. This patient had also suffered from polymyositis for 15 years. […] After 6 months they have been able to reduce their Prednisone to 5 mg per day.

chronic eczema = assay: Topical treatment of chronic eczema (Example 16); assay type: in vivo, human; conditions: person
From the text: A person suffered from chronic eczema—scaly and red areas on their neck and arms. They had tried all types of treatments, including cortisone with no effect. They were given a preparation containing a mixture of low and high molecular weight sodium hyaluronate (prepared as in EXAMPLE 4) mixed with 1% Wintergreen Oil, 1% Spearmint Oil, and 0.5% Peppermint Oil. They applied it for one week. […] They have not treated the area for 2 months and has noted no return of signs of eczema.

SMILES | relief of polymyositis (polymyositis) | effect on eczema (chronic eczema)
C[C@]12C=CC(=O)C=C1CC[C@@H]1[C@@H]2C(=O)C[C@@]2(C)[C@H]1CC[C@]2(O)C(=O)CO [Prednisone] | without much relief | –
C[C@]12CCC(=O)C=C1CC[C@@H]1[C@@H]2C(=O)C[C@@]2(C)[C@H]1CC[C@]2(O)C(=O)CO [cortisone] | – | no effect
